Measurements taken from patent publication US5525626A (priority 1989, dated 1996).
Entries after “also recorded” stand apart in the source; their conditions may differ.

Assays:
[1] = tested on: A-375 melanoma cells; test: 3H-thymidine assay; format: cell-based; conditions: Homo sapiens, A-375
[2] = tested on: PC-3 cells; test: cell growth, combination with TNF; format: cell-based; conditions: 7-OH-1,2-BP 500 μM/ml; TNF 1 nM/ml; combination 500 μM/1 nM; 4 days; 3×10^4 cells/well; control 18.58 + 1.05
Excerpt: (§4) Various cell lines (DU-145, PC-3 and LNCaP) from prostate carcinomas were used.
(§5) Initial cell count: 3×10^4 cells/well; exposure period: DU-145, PC-3: 4 days; LNCaP: 6 days

[3] = tested on: DUKX cells; test: growth inhibition of c-myc-expressing tumor cells; format: cell-based, Chinese hamsters
Excerpt: a) DUKX cells (ovarian carcinoma cells from Chinese hamsters) which over-express "c-myc" products, were cultivated according to standard conditions, two comparative groups being grown.

[4] = tested on: MCF 7 cells; test: growth inhibition of breast cancer cells (Table 1, Example 2); format: cell-based, human
Excerpt: The MCF 7 cell line from breast cancer was cultivated in DMEM-S 10, enriched with 10% FCS, for 10 days in the usual way.

[5] = tested on: TP 410 N cells; test: growth curve, neuroblastoma cells; format: cell-based, human; conditions: for Cell count: 25 μM/ml
Experimental: (§1) The neuroblastoma cell line and the three glioblastoma cell lines were cultivated in Ham's F10 medium enriched with 10% fetal calf serum (FCS) and the usual quantity of penicillin, streptomycin (Pen/Strep) and glutamine. The epidermoidal cell line was cultivated in modified Eagle's Medium (MEM), likewise enriched with 10% (FCS) and the usual quantity of glutamine and Pen/Strep.
(§2) In each case 5×10^4 cells were plated out in T25 bottles, the untreated cells being incubated in analogous conditions as control. The cell count was microscopically determined after 3, 5, 7, 10 and 12 days.

[6] = tested on: brain-tumor cells (glioblastoma cells); test: growth inhibition of brain-tumor cells; format: cell-based; conditions: Tables 1 to 3
[7] = tested on: PDGF receptors and EGF system; test: expression of receptors / EGF system; format: cell-based; conditions: Seliger et al., unpublished results
Excerpt: (§3) In connection with the neoplastic transformation and increased proliferation rate of glioblastoma cells, two autocrinic loops, the EGF and the PDGF system, are discussed.

[8] = tested on: A 431 cells; test: growth curve, epidermoidal carcinoma cells; format: cell-based, human; conditions: for Cell count: 10 μM/ml
Experimental: as §1, §2

[9] = tested on: GV-1 prostate carcinoma cells; test: 3H-thymidine assay; format: cell-based
[10] = tested on: g-CCM cells; test: growth inhibition of anaplastic astrocytoma cells (Table 1); format: cell-based, human; conditions: 200 μmol/ml, after 10 days
[11] = tested on: PDFG-A gene; test: transcription (mRNA level); format: cell-based; conditions: Seliger et al., unpublished results; FIG. 8
Excerpt: as §3

[12] = tested on: PDFG-B gene; test: transcription (mRNA level); format: cell-based; conditions: Seliger et al., unpublished results; FIG. 8
Excerpt: as §3

[13] = tested on: CAKI-2 cells; test: 3H-thymidine assay; format: cell-based; conditions: Homo sapiens, CAKI-2
Experimental: The cell lines were cultivated as indicated in Example 1.
The antiproliferative effect of the 1,2-benzopyrone derivatives according to the invention on the tumor cell lines in each case was shown with the help of the ^3 H-thymidine insertion and with reference to growth curves.
In a 24-well-plate, in each case 10^4 cells of the line to be investigated were inoculated per well. Approximately 48 hours later the cells were half-confluent; the medium was then changed and replaced by a medium containing the active substance in question (cf Table 3). […] Subsequently the cultures were washed twice with ice-cold PBS and the high-molecular-weight ^3 H-radioactivity was precipitated with 5% trichloroacetic acid for one hour at 4° C. After the washing of the cells in PBS the ^3 H-radioactivity was solubilized with 0.3M NaOH and measured in the counter. The growth-inhibition was determined by comparing the thymidine insertion of the cells treated with active substance with untreated cells.
The active substance concentration in each case was so chosen that ^3 H-thymidine insertion was 50% inhibited. The active substance concentrations used under this aspect for the active substances and cell lines in each case are given in table 4 below in μM/ml, […]

[14] = tolerance study in patients with malignant tumors; format: in vivo, human
Excerpt: Over 8 consecutive weeks the patients were examined once a week for signs of systemic toxicity and organic dysfunctions.

[15] = tested on: EJ cells; test: growth inhibition of bladder carcinoma cells (Table 1); format: cell-based, human; conditions: 200 μmol/ml, after 10 days
[16] = tested on: DU-145 cells; test: cell growth, combination with TNF; format: cell-based; conditions: 7-OH-1,2-BP 500 μM/ml; TNF 1 nM/ml; combination 500 μM/1 nM; 4 days; 3×10^4 cells/well; control 51.86 + 3.06
Excerpt: as §4, §5

[17] = tested on: Tp 242 MG glioblastoma cells; test: 3H-thymidine assay; format: cell-based; conditions: Homo sapiens
[18] = 1 μM/ml, read-out: 3H-thymidine tracer (%) of control
[19] = 2 μM/ml, read-out: 3H-thymidine tracer (%) of control
[20] = 4 μM/ml, read-out: 3H-thymidine tracer (%) of control
[21] = 8 μM/ml, read-out: 3H-thymidine tracer (%) of control
[22] = 16 μM/ml, read-out: 3H-thymidine tracer (%) of control
[23] = 25 μM/ml, read-out: 3H-thymidine tracer (%) of control
[24] = 50 μM/ml, read-out: 3H-thymidine tracer (%) of control
[25] = 100 μM/ml, read-out: 3H-thymidine tracer (%) of control
[26] = 250 μM/ml, read-out: 3H-thymidine tracer (%) of control
[27] = 500 μM/ml, read-out: 3H-thymidine tracer (%) of control
[28] = Table 4, *: maximum usable dosage, no 50% inhibition, read-out: active substance concentration at which 3H-thymidine insertion was 50% inhibited
[29] = Table 4, read-out: active substance concentration at which 3H-thymidine insertion was 50% inhibited

## O=c1ccc2ccc(O)cc2o1 [7-OH-1,2-BP, 7-hydroxy-1,2-benzopyrone]
[1]; [18]
  activity at 1 µM: 100%
[1]; [19]
  activity at 2 µM: 92%
[1]; [20]
  activity at 4 µM: 86%
[1]; [21]
  activity at 8 µM: 81%
[1]; [22]
  activity at 16 µM: 72%
[1]; [23]
  activity at 25 µM: 64%
[1]; [24]
  activity at 50 µM: 53%
[1]; [25]
  activity at 100 µM: 49%
[1]; [26]
  activity at 250 µM: 47%
[1]; [27]
  activity at 500 µM: 44%
[1]; [28]
  IC50: 100 µM
[2]
  Cell growth: 11.51 + 0.63
[3]; 100 μg/ml, 24, 48 and 72 hours, FIG. 10
  inhibition of cell growth: dramatic inhibition of cell growth; also recorded: inhibit the cell growth of tumor cells with oncogene-overexpression
[3]; 24 hours, then 48 hours in 7-OH-1,2-BP-free medium, FIG. 11b1
  cell growth after removal of substance: considerable cell growth
[3]; 24 hours, trypsin, then 48 hours in 7-OH-1,2-BP-containing medium, FIG. 11b2
  inhibition of cell growth, second cultivation in presence of substance: cell growth was virtually completely inhibited
[4]; 200 μmol/ml, after 10 days
  % Growth inhibition compared with control: 64%
[4]; Example 2, FIG. 1
  cytostatic effect on breast cancer cells: clearly show the cytostatic effect
[5]; after 3 days, control 25
  Cell count: 8 × 10^4
[5]; after 5 days, control 45
  Cell count: 20 × 10^4
[5]; after 7 days, control 71
  Cell count: 36 × 10^4
[5]; Homo sapiens, Neuroblastoma cell, 288 h, 25 μM/ml (Table 2), read-out: % growth inhibition compared with control after 12 days
  inhibition at 25 µM: 62%
[6]
  growth-inhibiting effect on brain-tumor cells: strong growth-inhibiting effect on brain-tumor cells
[7]
  expression of PDGF receptors and of the EGF system: not influenced
[8]; after 3 days, control 6
  Cell count: 4 × 10^4
[8]; after 5 days, control 24
  Cell count: 10 × 10^4
[8]; after 7 days, control 45
  Cell count: 3 × 10^4
[8]; after 10 days, control 56
  Cell count: 12 × 10^4
[8]; after 12 days, control 87
  Cell count: 21 × 10^4
[8]; Homo sapiens, A-431, 288 h, 10 μM/ml (Table 2), read-out: % growth inhibition compared with control after 12 days
  inhibition at 10 µM: 76%
[9]; [18]
  activity at 1 µM: 100%
[9]; [19]
  activity at 2 µM: 89%
[9]; [20]
  activity at 4 µM: 83%
[9]; [21]
  activity at 8 µM: 75%
[9]; [22]
  activity at 16 µM: 69%
[9]; [23]
  activity at 25 µM: 63%
[9]; [24]
  activity at 50 µM: 51%
[9]; [25]
  activity at 100 µM: 39%
[9]; [26]
  activity at 250 µM: 36%
[9]; [27]
  activity at 500 µM: 27%
[9]; [29]
  IC50: 75 µM
[10]
  % Growth inhibition compared with control: 44%
[11]
  transcription of gene coding for PDFG-A (mRNA level): inhibited
[12]
  transcription of gene coding for PDFG-B (mRNA level): inhibited
[13]; [18]
  activity at 1 µM: 95%
[13]; [19]
  activity at 2 µM: 92%
[13]; [20]
  activity at 4 µM: 88%
[13]; [21]
  activity at 8 µM: 77%
[13]; [22]
  activity at 16 µM: 71%
[13]; [23]
  activity at 25 µM: 65%
[13]; [24]
  activity at 50 µM: 54%
[13]; [25]
  activity at 100 µM: 46%
[13]; 150 μM/ml, read-out: 3H-thymidine tracer (%) of control
  activity at 150 µM: 39%
[13]; [27]
  activity at 500 µM: 35%
[13]; [28]
  IC50: 75 µM
[14]; 50 mg/day increased up to 2000 mg/day, 8 weeks, 60 patients
  side-effects: no side-effects at all had occurred
[14]; long-term administration, 7000 mg/day
  toxic side-effects: Toxic side-effects were not observed
[15]
  % Growth inhibition compared with control: 26%
[16]
  Cell growth: 38.30 + 2.92
[17]; 1 μM/ml, read-out: 3H-thymidine insertion (%) of control
  activity at 1 µM: 93%
[17]; 2 μM/ml, read-out: 3H-thymidine insertion (%) of control
  activity at 2 µM: 91%
[17]; 4 μM/ml, read-out: 3H-thymidine insertion (%) of control
  activity at 4 µM: 91%
[17]; 8 μM/ml, read-out: 3H-thymidine insertion (%) of control
  activity at 8 µM: 84%
[17]; 16 μM/ml, read-out: 3H-thymidine insertion (%) of control
  activity at 16 µM: 73%
[17]; 25 μM/ml, read-out: 3H-thymidine insertion (%) of control
  activity at 25 µM: 55%
[17]; 50 μM/ml, read-out: 3H-thymidine insertion (%) of control
  activity at 50 µM: 43%
[17]; 100 μM/ml, read-out: 3H-thymidine insertion (%) of control
  activity at 100 µM: 39%
[17]; 250 μM/ml, read-out: 3H-thymidine insertion (%) of control
  activity at 250 µM: 35%
[17]; 500 μM/ml, read-out: 3H-thymidine insertion (%) of control
  activity at 500 µM: 32%
[17]; [29]
  IC50: 25 µM
